This note sets out measurements from article doi:10.1101/2025.10.23.684218v2, “Development of a dual chemical probe for the USP16 and HDAC6 zinc-finger ubiquitin-binding domain” (biorxiv, 2025).

The target in the assay is T1, NanoLuc-tagged HDAC6 (Homo sapiens, UniProt Q9UBN7).
T1 construct: N-terminal NanoLuc fusion in HEK293T
T1 sequence (Q9UBN7 1-1215): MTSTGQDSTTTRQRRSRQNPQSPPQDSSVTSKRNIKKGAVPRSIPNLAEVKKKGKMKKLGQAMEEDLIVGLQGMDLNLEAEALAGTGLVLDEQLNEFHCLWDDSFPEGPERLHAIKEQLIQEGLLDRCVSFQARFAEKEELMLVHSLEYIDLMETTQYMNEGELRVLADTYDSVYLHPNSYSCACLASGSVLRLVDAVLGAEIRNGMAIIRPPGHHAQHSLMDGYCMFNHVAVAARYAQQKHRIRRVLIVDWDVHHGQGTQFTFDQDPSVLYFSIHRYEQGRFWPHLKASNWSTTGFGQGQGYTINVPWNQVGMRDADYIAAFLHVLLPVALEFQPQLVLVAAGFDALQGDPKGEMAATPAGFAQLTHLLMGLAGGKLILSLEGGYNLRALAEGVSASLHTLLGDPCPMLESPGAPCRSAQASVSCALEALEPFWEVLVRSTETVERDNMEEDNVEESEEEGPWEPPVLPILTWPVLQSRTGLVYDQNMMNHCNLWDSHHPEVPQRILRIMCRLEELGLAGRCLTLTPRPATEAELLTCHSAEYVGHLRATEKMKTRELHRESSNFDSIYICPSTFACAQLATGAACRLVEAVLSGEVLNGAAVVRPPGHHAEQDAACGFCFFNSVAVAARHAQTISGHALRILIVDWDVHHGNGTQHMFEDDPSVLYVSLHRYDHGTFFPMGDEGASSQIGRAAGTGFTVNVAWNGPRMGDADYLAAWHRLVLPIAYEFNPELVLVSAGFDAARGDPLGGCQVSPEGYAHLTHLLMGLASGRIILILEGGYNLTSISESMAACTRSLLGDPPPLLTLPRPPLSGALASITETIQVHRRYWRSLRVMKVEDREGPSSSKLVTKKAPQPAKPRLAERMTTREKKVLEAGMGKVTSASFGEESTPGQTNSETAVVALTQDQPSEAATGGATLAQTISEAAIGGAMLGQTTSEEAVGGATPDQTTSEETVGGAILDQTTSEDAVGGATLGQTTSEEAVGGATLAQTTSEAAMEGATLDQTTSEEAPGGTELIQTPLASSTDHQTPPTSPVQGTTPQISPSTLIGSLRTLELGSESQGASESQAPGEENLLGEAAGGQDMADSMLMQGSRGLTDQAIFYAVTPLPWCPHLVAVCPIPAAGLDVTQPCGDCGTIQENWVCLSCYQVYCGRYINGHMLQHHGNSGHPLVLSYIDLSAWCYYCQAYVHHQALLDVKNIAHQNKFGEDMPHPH
Put plainly: NanoBRET displacement of HaloTag-ISG15. In kind it is cell-based. The settings on record: HEK293T cells, […].

On to `C[C@@H](NC(=O)Cn1c(CCC(=O)O)nc2c(Cl)cccc2c1=O)c1c(F)cccc1F` [compound 16, (R)-3-(8-chloro-3-(2-((1-(2,6-difluorophenyl)ethyl)amino)-2-oxoethyl)-4-oxo-3,4-dihydroquinazolin-2-yl)propanoic acid], for which the “NanoBRET displacement of HaloTag-ISG15” value is “SGC-UBD1031N did not inhibit the interaction of HDAC6 or USP16 and ISG15”.
